# Laboratory results published in patent US6495698B1, “Binder-free compacted forms of 1,3-dihalo-5,5-dimethylhydantoins” (Albemarle Corporation, priority 2000, dated 2002).
# Legend:
# Format in all cases: physicochemical
# [1] = Particle size determination with Coulter LS Particle Size Analyzer; conditions: for Particle Size 10% is greater than / Particle Size 25% is greater than / Particle Size 50% is greater than / Particle Size 75% is greater than / Particle Size 90% is greater than / Particle Size Average: commercially available sample
# Protocol: All particle size determinations referred to in the following Examples were determined by use of a Coulter® LS Particle Size Analyzer. The analyzer was equipped with an LS 230 small volume module and a Fraunhofer PIDS (Polarization Intensity Differential Scattering) detector switched to the “On” position. The determinations were performed at room temperature with a run time of approximately 1 minute per sample. Prior to conducting the particle size determination, and whenever the sample appeared to contain particles adhering to each other, the sample was subjected for 15±1 seconds to sonication using a Sonicor Model SC-100T apparatus to ensure that the particle size measurements were on individual particles of the product, rather than temporarily agglomerated particles.
# Samples of commercially-available N,N′-dihalo-5,5-dimethylhydantoins were obtained and subjected to standard test procedures inorderto determine their average particle size using the Coulter® LS Particle Size Analyzer. Table 1 summarizes the results of these average particle size determinations, and also sets forth the data obtained in the same way on arepresentative sample of the 1,3-dibromo-5,5-dimethylhydantoin product of application Ser. No. 09/484,687. Table 2 summarizes the particle size distribution data on the commercially-available 1,3-dihalo-5,5-dimethylhydantoins. In Table 2 the following abbreviations are used: DCDMH is 1,3-dichloro-5,5-dimethylhydantoin; BCDMH is N,N′-bromochloro-5,5-dimethylhydantoin; and DBDMH is 1,3-dibromo-5,5-dimethylhydantoin.
# [2] = Tableting (pressure compaction) without binder in Sintech press; conditions: for compaction into tablets without binder (state of tablets released from the die): without any binder
# From the text: The commerically available 1,3-dihalo-5,5-dimethylhydantoins referred to in Example 1 were subjected to tableting operations. Five-gram samples of 1,3-dibromo-5,5-dinethylhydantoin and four-gram samples of DCDMH and BCDMH were compacted without binder in a Sintech® press (MTS Systems Corporation, Edenprairie, Minn.) equipped with a punch and die fabricated from Hastelloy® C alloy. Before manually filling the die, the interior surfaces of the die were lightly dusted with micronized polypropylene wax (MICROPRO 400 wax; Micro Powders, Incorporated, Tarrytown, N.Y.). The pressure applied was 5000 psi with no dwell time, i.e., the pressure was terminated automatically immediately upon reaching 5000 psi. The resultant tablets after removal from the die were aged for 6 days at room temperature. Thereupon the tablets were subjected to crush strength testing utilizing a Sintech® 1/S compression apparatus (MTS Systems Corporation, Edenprairie, Minnesota) equipped with Testworks software, which software is installed in the 1/S compression apparatus as supplied by MTS Systems Corporation. The apparatus includes a horizontal circular-shaped load cell interfaced with a computer, a digital micrometer also interfaced with the computer, and a vertical screw-driven piston that is disposed above the load cell and adapted to apply a downward force perpendicular to the load cell. The procedure for measuring crush strength involves measuring the thickness of the tablet with the micrometer to provide a digitized input to the computer. Next the tablet is placed on its edge on the load cell with the piston in contact with the upper edge of the tablet. Then the apparatus is activated whereby the piston commences applying a progressively increasing downward diametral force to the tablet. At the same time, the load cell continuously measures the downward force being applied to the tablet, and the input of such measurements is transmitted to the computer. […]
# [3] = Crush strength testing of tablets (Sintech 1/S compression apparatus); conditions: binder-free tablets compacted at 5000 psi, aged 6 days at room temperature; average of three tests
# From the text: The commerically available 1,3-dihalo-5,5-dimethylhydantoins referred to in Example 1 were subjected to tableting operations. Five-gram samples of 1,3-dibromo-5,5-dinethylhydantoin and four-gram samples of DCDMH and BCDMH were compacted without binder in a Sintech® press (MTS Systems Corporation, Edenprairie, Minn.) equipped with a punch and die fabricated from Hastelloy® C alloy. Before manually filling the die, the interior surfaces of the die were lightly dusted with micronized polypropylene wax (MICROPRO 400 wax; Micro Powders, Incorporated, Tarrytown, N.Y.). The pressure applied was 5000 psi with no dwell time, i.e., the pressure was terminated automatically immediately upon reaching 5000 psi. The resultant tablets after removal from the die were aged for 6 days at room temperature. Thereupon the tablets were subjected to crush strength testing utilizing a Sintech® 1/S compression apparatus (MTS Systems Corporation, Edenprairie, Minnesota) equipped with Testworks software, which software is installed in the 1/S compression apparatus as supplied by MTS Systems Corporation. […]
# As used herein, including the claims, values given for crush strength are as measured using the apparatus and procedure as described in Example 2 above. […]
# [4] = material compacted on small scale in manually filled dies
SMILES,Particle Size 10% is greater than [1],Particle Size 25% is greater than [1],Particle Size 50% is greater than [1],Particle Size 75% is greater than [1],Particle Size 90% is greater than [1],Particle Size Average [1],Average Particle Size ([1]; Source: Aldrich Chemical Co.),"Average Particle Size [1, 4]",compaction into tablets without binder (state of tablets released from the die) [2],Crush strength [3],Average Particle Size ([1]; Source: Albemarle Corporation),Average Particle Size ([1]; Source: Great Lakes Chemical Corporation),"Average Particle Size ([1]; Source: the product of Application No. 09/484,687)","Compaction ([2]; without binder, 5000 psi, no dwell time, die dusted with micronized polypropylene wax, listed as 1,3-dibromo-5,5-dimethyhydantoin)"
"CC1(C)C(=O)N(Br)C(=O)N1Br [DBDMH - Aldrich, 1,3-dibromo-5,5-dimethylhydantoin]",359.2 μ,177.6 μ,86.03 μ,47.37 μ,27.67 μ,162.1 μ,–,–,–,–,–,–,–,–
"CC1(C)C(=O)N(Br)C(=O)N1Br [DBDMH - Great Lakes, 1,3-dibromo-5,5-dimethylhydantoin]",78.76 μ,49.76 μ,34.68 μ,23.25 μ,13.90 μ,45.23 μ,–,–,–,–,–,–,–,–
"CC1(C)C(=O)N(Cl)C(=O)N1Cl [DCDMH - Aldrich, 1,3-dichloro-5,5-dimethylhydantoin]",195.3 μ,134.4 μ,80.07 μ,45.99 μ,27.19 μ,108.1 μ,108.1 microns,about 108 microns,intact and exhibited no visual surface imperfections,183.6 lb/in,–,–,–,–
"CC1(C)C(=O)N(Br)C(=O)N1Br [DBDMH - Albemarle, 1,3-dibromo-5,5-dimethylhydantoin]",162.7 μ,90.12 μ,39.21 μ,26.85 μ,17.91 μ,64.59 μ,–,–,–,–,–,–,–,–
"CC1(C)C(=O)N(Cl)C(=O)N1Br [BCDMH - Aldrich, N,N′-bromochloro-5,5-dimethylhydantoin]",877.9 μ,409.9 μ,173.9 μ,65.39 μ,29.35 μ,323.8 μ,323.8 microns,about 324 microns,intact and exhibited no visual surface imperfections,83.9 lb/in,–,–,–,–
"CC1(C)C(=O)N(Br)C(=O)N1Br [1,3-dibromo-5,5-dimethylhydantoin]",–,–,–,–,–,–,162.1 microns,–,–,–,64.5 microns,45.2 microns,>500 microns,could not be tableted
